According to US20030018061A1, “Novel remedies with the use of beta 3 agonist” (priority 2000, published 2003):

What was measured:
[1] = tested on: Mice fasted overnight, glucose loaded; experiment: Antidiabetic effect (II): plasma glucose after glucose loading in fasted mice, glibenclamide and β3 agonist; type: in vivo; conditions: 1 hour after glucose load (1 g/kg s.c.), oral GLI 10 mg/kg, compound a 10 mg/kg, d 0.3 mg/kg, e, g 3 mg/kg, i 1 mg/kg, vs glucose loading only
Description: Mice fasted overnight were orally administered with glibenclamide (GLI: 10 mg/kg), a β3 agonist (compound a: 10 mg/kg; compound c: 0.3 mg/kg; compound d: 0.3 mg/kg; compound e: 3 mg/kg; compound g: 3 mg/kg; compound h: 1 mg/kg; compound i: 1 mg/kg), or GLI and a β3 agonist (compound a, compound c, compound d, compound e, compound g, compound h, and compound i) in combination (each dosage was the same as the aforementioned), and immediately glucose (1 g/kg, subcutaneous injection) was loaded. Blood was collected after 1 hour, and the amount of glucose contained in blood plasma was measured.
In this combined use, hypoglycemia, which is a side effect of glibenclamide, was not observed.

[2] = tested on: Mice induced with obesity by feeding with a high fat diet; experiment: Antiobestic effect (I): body weight of high fat diet obese mice, sibutramine and β3 agonist; type: in vivo; conditions: oral, 2 weeks; SIB 1 mg/kg; compound c, d 0.3 mg/kg; e, g 3 mg/kg; h, i 1 mg/kg; alone or combined at same doses
Description: (§1) Mice induced with obesity by feeding with a high fat diet for 2 months were orally administered with sibutramine (SIB: 1 mg/kg), a β3 agonist (compound c: 0.3 mg/kg; compound d: 0.3 mg/kg; compound e: 3 mg/kg; compound g: 3 mg/kg; compound h: 1 mg/kg; compound i: 1 mg/kg), or SIB and a β3 agonist (compound c, compound d, compound e, compound g, compound h, and compound i) in combination (each dosage was the same as the aforementioned) for 2 weeks and bred, and body weight was measured.

[3] = tested on: human urinary bladder compression muscle; experiment: Relaxation of carbachol-contracted human urinary bladder compression muscle; type: cell-based; conditions: for relaxation of bladder compression muscle, combination with propiverine: 10^−6 M propiverine plus compound (a, b, f, g 10^−9 M; c, d 10^−10 M; e, h, i 10^−8 M); for relaxation of bladder compression muscle, combination with propiverine / relaxation of bladder compression muscle, combination with oxybutynin / relaxation of bladder compression muscle, combination with tolterodine: in comparison with each compound alone; for relaxation of bladder compression muscle, combination with oxybutynin: 10^−9 M oxybutynin plus compound (a, b, f, g 10^−9 M; c 10^−10 M; e, h, i 10^−8 M); for relaxation of bladder compression muscle, combination with tolterodine: 10^−9 M tolterodine plus compound (a, b, f, g 10^−9 M; d 10^−10 M; e, h, i 10^−8 M); for concentration at which the bladder compression muscle was significantly relaxed / concentration at which the muscle was not relaxed significantly: contraction provoked by carbachol (0.5×10^−6 M), each compound alone
Mice [4] = experiment: Antidiabetic effect: plasma glucose in mice, insulin and β3 agonist; type: in vivo; conditions: 30 min after dosing; INS 0.2 U/kg intraperitoneal; oral compound a 10 mg/kg; c, d 0.3 mg/kg; e, g 3 mg/kg; h, i 1 mg/kg; alone or combined
Description: Mice were administered with insulin (INS: 0.2 U/kg, intraperitoneal injection), a β3 agonist (oral administration of compound a: 10 mg/kg; compound c: 0.3 mg/kg; compound d: 0.3 mg/kg; compound e: 3 mg/kg; compound g: 3 mg/kg; compound h: 1 mg/kg; compound i: 1 mg/kg, respectively), or INS and a β3 agonist (compound a, compound c, compound d, compound e, compound g, compound h, and compound i) in combination (each dosage and administration route was the same as the aforementioned), blood was collected after 30 min, and the amount of glucose contained in blood plasma was measured.

[5] = tested on: Genetically diabetic mice; experiment: Antidiabetic effect (IV): genetically diabetic mice, acarbose and β3 agonist; type: in vivo; conditions: oral, 2 weeks; ACA 1 mg/kg; compound c, d 0.3 mg/kg; e, g 3 mg/kg; h, i 1 mg/kg; alone or combined
Description: Genetically diabetic mice were orally administered with acarbose (ACA: 1 mg/kg), a β3 agonist (compound c: 0.3 mg/kg; compound d: 0.3 mg/kg; compound e: 3 mg/kg; compound g: 3 mg/kg; compound h: 1 mg/kg; compound i: 1 mg/kg), or ACA and a β3 agonist (compound c, compound d, compound e, compound g, compound h, and compound i) in combination (each dosage was the same as the aforementioned) for 2 weeks. Blood was collected thereafter, and the amount of glucose contained in blood plasma was measured.

Mice [6] = experiment: Antilipemic effect (II): plasma triglyceride in mice, bezafibrate and β3 agonist; type: in vivo; conditions: oral, 2 weeks; administered solely: BEZ 3 mg/kg; compound c, d 0.3 mg/kg; e, g 3 mg/kg; h, i 1 mg/kg
Description: Mice were orally administered with bezafibrate (BEZ: 3 mg/kg), a β3 agonist (compound c: 0.3 mg/kg; compound d: 0.3 mg/kg; compound e: 3 mg/kg; compound g: 3 mg/kg; compound h: 1 mg/kg; compound i: 1 mg/kg), or BEZ and a β3 agonist (compound c, compound d, compound e, compound g, compound h, and compound i) in combination (each dosage was the same as the aforementioned) for 2 weeks. Blood was collected thereafter, and the amount of triglyceride contained in blood plasma was measured.

[7] = tested on: Mice induced with obesity by feeding with a high fat diet; experiment: Antiobestic effect (II): body weight of high fat diet obese mice, orlistat and β3 agonist; type: in vivo; conditions: oral, 2 weeks; orlistat 1 mg/kg; compound c, d 0.3 mg/kg; e, g 3 mg/kg; h, i 1 mg/kg; alone or combined at same doses
Description: as §1, with “orlistat (1” for “sibutramine (SIB: 1”, “orlistat” for “SIB”

[8] = tested on: Genetically diabetic mice; experiment: Antidiabetic effect (III): genetically diabetic mice, rosiglitazone and β3 agonist; type: in vivo; conditions: oral, 2 weeks; ROS 1 mg/kg; compound c, d 0.3 mg/kg; e, g 3 mg/kg; h, i 1 mg/kg; alone or combined
Description: Genetically diabetic mice were orally administered with rosiglitazone (ROS: 1 mg/kg), a β3 agonist (compound c: 0.3 mg/kg; compound d: 0.3 mg/kg; compound e: 3 mg/kg; compound g: 3 mg/kg; compound h: 1 mg/kg; compound i: 1 mg/kg), or ROS and a β3 agonist (compound c, compound d, compound e, compound g, compound h, and compound i) in combination (each dosage was the same as the aforementioned) for 2 weeks. Blood was collected thereafter, and the amount of glucose contained in blood plasma was measured.

| Compound | blood glucose level (glucose in blood plasma) [1] | body weight [2] | relaxation of bladder compression muscle, combination with propiverine [3] | relaxation of bladder compression muscle, combination with oxybutynin [3] | relaxation of bladder compression muscle, combination with tolterodine [3] | concentration at which the bladder compression muscle was significantly relaxed [3] | concentration at which the muscle was not relaxed significantly [3] | blood glucose level (glucose in blood plasma) (Mice [4]) | blood glucose level (glucose in blood plasma) [5] | plasma triglyceride level (Mice [6]) | body weight [7] | blood glucose level (glucose in blood plasma) [8] |
| --- | --- | --- | --- | --- | --- | --- | --- | --- | --- | --- | --- | --- |
| COc1ccc(Cl)cc1C(=O)NCCc1ccc(S(=O)(=O)NC(=O)NC2CCCCC2)cc1 [GLI, glibenclamide, reference compound] | almost no difference in the blood glucose level | – | – | – | – | – | – | – | – | – | – | – |
| CC(C)CC(N(C)C)C1(c2ccc(Cl)cc2)CCC1 (stereo not drawn) [SIB, sibutramine, reference compound] | – | almost no change in body weight | – | – | – | – | – | – | – | – | – | – |
| CS(=O)(=O)Nc1cccc([C@@H](O)CNCCOc2ccc3c(c2)[nH]c2cc(O)ccc23)c1 [compound a, (R)-N-[3-[2-[2-(7-hydroxy-9H-carbazole-2-iloxy)ethylamino]-1-hydroxyethyl]phenyl]methanesulfonamide] | almost no difference in the blood glucose level | – | relaxed significantly | relaxed significantly | relaxed significantly | 10^−7 M | 10^−9 M | no change in blood glucose level | – | – | – | – |
| CS(=O)(=O)Nc1cc([C@@H](O)CNCCOc2ccc3c4c([nH]c3c2)CCCC4)ccc1O [compound b, (R)-N-[5-[2-[2-(5,6,7,8-tetrahydro-9H-carbazole-2-iloxy)ethylamino]-1-hydroxyethyl]-2-hydroxyphenyl]methanesulfonamide] | – | – | relaxed significantly | relaxed significantly | relaxed significantly | 10^−7 M | 10^−9 M | – | – | – | – | – |
| CS(=O)(=O)Nc1cc([C@@H](O)CNCCOc2ccc3c(c2)sc2ccccc23)ccc1O [compound c, (R)-N-[5-[2-[2-(dibenzothiophene-3-iloxy)ethylamino]-1-hydroxyethyl]-2-hydroxyphenyl]methanesulfonamide] | almost no difference in the blood glucose level | almost no change in body weight | relaxed significantly | relaxed significantly | relaxed significantly | 10^−8 M | 10^−10 M | no change in blood glucose level | no difference | no difference | almost no change in body weight | no difference in the blood glucose level |
| CS(=O)(=O)Nc1cc([C@@H](O)CNCCOc2ccc3c(c2)[nH]c2ccccc23)ccc1O [compound d, (R)-N-[5-[2-[2-(9H-carbazole-2-iloxy)ethylamino]-1-hydroxyethyl]-2-hydroxyphenyl]methanesulfonamide] | almost no difference in the blood glucose level | almost no change in body weight | relaxed significantly | relaxed significantly | relaxed significantly | 10^−8 M | 10^−10 M | no change in blood glucose level | no difference | no difference | almost no change in body weight | no difference in the blood glucose level |
| CS(=O)(=O)Nc1cccc([C@@H](O)CNCCOc2ccc3c(c2)[nH]c2ccccc23)c1 [compound e, (R)-N-[3-[2-[2-(9H-carbazole-2-iloxy)ethylamino]-1-hydroxyethyl]phenyl]methanesulfonamide] | almost no difference in the blood glucose level | almost no change in body weight | relaxed significantly | relaxed significantly | relaxed significantly | 10^−6 M | 10^−8 M | no change in blood glucose level | no difference | no difference | almost no change in body weight | no difference in the blood glucose level |
| CN(C)S(=O)(=O)Nc1cc([C@@H](O)CNCCOc2ccc3c(c2)[nH]c2ccccc23)ccc1O [compound f, (R)-N′-[5-[2-[2-(9H-carbazole-2-iloxy)ethylamino]-1-hydroxyethyl]-2-hydroxyphenyl]-N,N-dimethyl sulfonyl amide] | – | – | relaxed significantly | relaxed significantly | relaxed significantly | 10^−7 M | 10^−9 M | – | – | – | – | – |
| CCCCCCCCCCC[C@@H](C[C@@H]1OC(=O)[C@H]1CCCCCC)OC(=O)[C@H](CC(C)C)NC=O [orlistat, reference compound] | – | – | – | – | – | – | – | – | – | – | almost no change in body weight | – |
| insulin [reference compound] | – | – | – | – | – | – | – | no change in blood glucose level | – | – | – | – |
